Survival and tumor size data for one compound are collected here from PMC10765884, “MC180295 is a highly potent and selective CDK9 inhibitor with preclinical in vitro and in vivo efficacy in cancer” (Clinical Epigenetics, 2024).

The assay has as its system CT26.CL25 cells. The assay is described as follows: CT26.CL25 colon cancer model in B6 mice with/without CD8 depletion. In kind it is in vivo. The following applies: CT26.CL25 s.c. in B6 mice, MC180295 20 mg/kg i.p. q.o.d., DAC 0.5 mg/kg i.p. daily. The protocol: Fig. 5 Survival and antitumor effects of MC180295, DAC, or their combination, with/without CD8 + T cells. A 20 mg/kg MC180295 was administered (i.p.) q.o.d. 0.5 mg/kg DAC was administered (i.p.) daily. Mouse survival in days. B Survival of B6 mice, after CD8 depletion, using an anti-CD8 antibody. 20 mg/kg MC180295 was administered (i.p.) q.o.d. 0.5 mg/kg DAC was administered (i.p.) daily. C Antitumor effects of MC180295 with and without CD8 depletion, using an anti-CD8 antibody. B6 mice were inoculated (s.c.) with 5 × 10^5 CT26.CL25 cells. Eight days later, when tumors were palpable, 20 mg/kg MC180295 was administered (i.p.) q.o.d. 0.5 mg/kg DAC was administered (i.p.) daily. Tumor sizes were measured using a caliper and calculated over vehicle. D Antitumor effects of DAC, with and without CD8 depletion, using an anti-CD8 antibody. B6 mice were inoculated (s.c.) with 5 × 10^5 CT26.CL25 cells. Eight days later, when tumors were palpable, 20 mg/kg MC180295 was administered (i.p.) q.o.d. 0.5 mg/kg DAC was administered (i.p.) daily. Tumor sizes were measured using a caliper and calculated over vehicle. E Antitumor effects of DAC + MC180295, with and without CD8 depletion, using an anti-CD8 antibody. B6 mice were inoculated (s.c.) with 5 × 10^5 CT26.CL25 cells. Eight days later, when tumors were palpable, 20 mg/kg MC180295 was administered (i.p.) q.o.d. 0.5 mg/kg DAC was administered (i.p.) daily. Tumor sizes were measured using a caliper and calculated over vehicle. Significances were calculated using log-rank (Mantel-Cox) or Student's T tests. Data shown as means ± SEMs
For the s.c. SW48 model, 2 × 10^6 cells were injected into the flanks of randomly assigned, gender-matched 8–10-week-old NSG mice. 20 mg/kg MC180379, MC180380, or MC180295 was injected (i.p.), every other day, when the tumors were palpable, 11 days after engraftment, until endpoints were met. Mice were sacrificed before tumor volumes exceeded 400 mm^2 (endpoint for this model). For the s.c. HT29 model, 2 × 10^6 cells were injected into the flanks of randomly assigned, gender-matched, 8–10-week-old NSG mice. […]

As to `Nc1nc(N[C@H]2C[C@@H]3CC[C@H]2C3)sc1C(=O)c1ccccc1[N+](=O)[O-]` (relative stereo) [MC180295], the survival result is “extended survival” and the tumor size entry is reported as “significantly decreased tumor size”.
